Legend:
[1] = Liver enzymes after gefitinib; conditions: mouse, in vivo
[2] = Gefitinib metabolites M4 and M28 in feces of humanized (Hu-PIRF) and control mice (mass spectrometry); assay type: in vivo, human liver chimeric mouse
Method: Feces samples were weighted and homogenized in water (100 mg feces in 1,000 μl of H2O). Subsequently, 300 μl of methanol was added to 100 μl of the resulting mixture, followed by centrifugation at 15,000 g for 20 min. The supernatant was transferred to a new Eppendorf vial for a second centrifugation (15,000 g for 20 min). The final concentration of agomelatine is 2 μM. Each supernatant was transferred to an auto sampler vial for analysis (described below).
The column temperature was maintained at 40° C. The flow rate of was 0.3 mL/min with a gradient ranging from 2% to 98% aqueous acetonitrile containing 0.1% formic acid in a 15-min run. Quadrupole time of flight mass spectrometry (QTOFMS) was operated in positive mode with electrospray ionization. Ultra-highly pure nitrogen was applied as the drying gas (12 L/min) and the collision gas. The drying gas temperature was set at 325° C. and nebulizer pressure was kept at 35 psi. The capillary voltages were set at 3.5 kV. During mass spectrometry, real time mass correction and accurate mass were achieved by continuously measuring standard reference ions at m/z 121.0508, 922.0098 in the positive mode. Mass chromatograms and mass spectra were acquired by MassHunter Workstation data Acquisition software (Agilent, Santa Clara, Calif.) in centroid and profile formats from m/z 50 to 1000. The acquisition rate was set as 1.5 spectra per second. […] Meanwhile, the quality control samples were performed every 10 samples in the process of the sample running. Due to the authentic compounds of metabolites not available, the metabolite identification was based on their exact mass and MS/MS fragments. The chromatograms and relative abundance of metabolite were performed on Qualitative Analysis software (Agilent, Santa Clara, Calif.). The relative abundance was evaluated based on integrated peak area of each metabolite.

[3] = Troglitazone phase II metabolites in livers of humanized and non-humanized mice with and without Por and Ugdh deletion; assay type: in vivo, mouse; conditions: liver
Method: Percentage of liver glucuronidated and sulfated metabolites detected in humanized livers 2 hours after i.p injection of troglitazone (600 mg/kg). FIG. 25A. Humanized FRG mice. FIG. 25B. Humanized FRG mice after murine Por and Ugdh deletion. FIG. 25C. Non-humanized FRG mice. FIG. 25D. Non-humanized FRG mice with Por and Ugdh genes deleted. Sulfate metabolites of troglitazone in red and glucuronide conjugates in blue.
Troglitazone metabolites (two hours after i.p. injection of 600 mg/kg troglitazone) in the livers of humanized and non-humanized FRG mice with and without Por and Ugdh deletion was analyzed.

Structure (SMILES)	elevation of liver enzymes [1]	level of metabolite M4 in feces ([2]; murine Por-deficient Hu-PIRF mice versus Por-expressing humanized and non-humanized control mice)	level of human-specific metabolite M28 in feces ([2]; murine Por-deficient Hu-PIRF mice versus control groups)	glucuronide conjugates in non-humanized livers of control mice versus humans or humanized mice ([3]; two hours after i.p. injection of 600 mg/kg)	glucuronide conjugates upon deletion of ugdh and por ([3]; non-humanized and humanized mice, two hours after i.p. 600 mg/kg)
COc1cc2ncnc(Nc3ccc(F)c(Cl)c3)c2cc1OCCCN1CCOCC1 [gefitinib]	did not cause any elevation of liver enzymes	highest level	highest level	–	–
Cc1c(C)c2c(c(C)c1O)CCC(C)(COc1ccc(CC3SC(=O)NC3=O)cc1)O2 (centres unmarked) [troglitazone]	–	–	–	much higher amounts	reduced significantly
